Test results: US10633669B2, “Herbicide-resistant protein, encoding gene and use thereof” (BEIJING DABEINONG TECHNOLOGY GROUP CO., LTD., priority 2015, dated 2020)

What was measured:
[1] = tested on: Arabidopsis T1 plants transformed with 24DT11 nucleotide sequence; experiment: Herbicide resistance effect test of transgenic Arabidopsis T1 plants (spray); format: in vivo, Arabidopsis thaliana; conditions: genotype 24DT11
Source text: (§1) 24DT11 gene was used to transform Arabidopsis for the first time. At first, T1 transformants were selected from the background of un-transformed seeds, using glufosinate-ammonium selection scheme. About 20000 T1 seeds are screened among which 282 strains of T1 generation positive transformants (PAT gene) were identified, i.e. the transformation efficiency was about 1.4%. Herbicide resistance effect tests to 2,4-D dimethyl ammonium salt and agroxone of Arabidopsis T1 plants transformed with 24DT11 nucleotide sequence, control nucleotide sequence respectively and wild-type Arabidopsis plants were performed after 18 days of planting.
(§2) Arabidopsis T1 plants transformed with 24DT11 nucleotide sequence, control nucleotide sequence respectively and wild-type Arabidopsis plants were sprayed with 2,4-D dimethyl ammonium salt (560 g ae/ha, 1-fold concentration in field), agroxone (560 g ae/ha, 1-fold concentration in field) and blank solvent (water). Resistance conditions of the plants were counted 7 days and 14 days after spraying. Plants with growth conditions consistent with blank solvent (water) 7 days after spaying were classified as highly resistant plants; Plants with curly rosette leaves 7 days after spaying were classified as moderately resistant plants; Plants incapable of bolting 14 days after spaying were classified as low-resistant plants and the dead plants 14 days after spaying were classified as non-resistant plants. Because each Arabidopsis T1 plant is an independent transformation event, significant differences of individual T1 responses can be expected under a given dose.

[2] = tested on: Arabidopsis T1 plants transformed with control nucleotide sequence; experiment: Herbicide resistance effect test of Arabidopsis T1 plants with control sequence (spray); format: in vivo, Arabidopsis thaliana; conditions: genotype Control, 560 g ae/ha
Source text: as §1, §2

[3] = tested on: wild-type Arabidopsis plants; experiment: Herbicide resistance effect test of wild-type Arabidopsis (spray); format: in vivo, Arabidopsis thaliana; conditions: genotype Wild, 560 g ae/ha
Source text: as §1, §2

[4] = tested on: Soybean plants containing 24DT11 nucleotide sequence (S1, S2 and S3); experiment: Herbicide-resistance effect of transgenic soybean plants (spray, damage degree); format: in vivo; conditions: for Average damage % 6HAT: 6 hours after spraying; for Average damage % 2DAT: 2 days after spraying; for Average damage % 7DAT: 7 days after spraying; for Average damage % 14DAT: 14 days after spraying
Description: (§3) Herbicide resistance effects tests to 2,4-D dimethyl ammonium salt and agroxone of soybean plants containing 24DT11 nucleotide sequence and control nucleotide sequence respectively and wild type soybean plants (stages V3-V4) were performed respectively.
(§4) Soybean plants containing 24DT11 nucleotide sequence, control nucleotide sequence and wild type soybean plants were taken and spayed with 2,4-D dimethyl ammonium salt (2240 g ae/ha, four-folds concentration in field), agroxone (2240 g ae/ha, four-folds concentration in field) and blank solvent (water). Take statistics of the damage degree of each plant caused by herbicides according to the curling degree of leaves and the damage degree of growing point six hours ([…]), two days (2DAT), seven days (7DAT) and 14 days (14DAT) after spraying respectively: if leaves are flat like wild-type leaves and the growing point is intact, the damage degree is 0%; if leaves curl up and wilt and the growing point is died, the damage degree is 100%. There are three strains contained a transferred 24DT11 nucleotide sequence (S1, S2 and S3), two strains contained a transferred control sequence (S4 and S5) and one wild-type strain (CK1) in total; select 10˜15 plants from each strain for testing.

[5] = tested on: Soybean plants containing control nucleotide sequence (S4 and S5); experiment: Herbicide-resistance effect of soybean plants with control sequence (spray, damage degree); format: in vivo; conditions: 2240 g ae/ha; for Average damage % 6HAT: 6 hours after spraying; for Average damage % 2DAT: 2 days after spraying; for Average damage % 7DAT: 7 days after spraying; for Average damage % 14DAT: 14 days after spraying
Description: as §3, §4

[6] = tested on: wild type soybean plants (CK1); experiment: Herbicide-resistance effect of wild type soybean (spray, damage degree); format: in vivo; conditions: wild-type soybean strain CK1, 2240 g ae/ha
Description: as §3, §4

[7] = tested on: Corn plants containing 24DT11 nucleotide sequence (S6, S7 and S8); experiment: Herbicide-resistance effect test of transgenic corn plants (spray, prop root development); format: in vivo; conditions: 21 days after spraying
Description: (§5) Herbicide resistance effects tests to 2,4-D dimethyl ammonium salt and agroxone of corn plants containing 24DT11 nucleotide sequence, control nucleotide sequence respectively and wild type corn plants (stages V3-V4) were performed respectively.
(§6) Corn plants containing 24DT11 nucleotide sequence, control nucleotide sequence respectively and wild type corn plants were taken and spayed with 2,4-D dimethyl ammonium salt (8960 g ae/ha, 16-folds concentration in field), agroxone (8960 g ae/ha, 16-folds concentration in field) and blank solvent (water) respectively. Prop root development was counted 21 days after spaying. Three strains (S6, S7 and S8) of corn plants transformed with 24DT11 nucleotide sequence, two strains (S9 and S10) of corn plants transformed with control nucleotide sequence and 1 strain of wild type (CK2) corn were selected and 10-15 plants from each stain were tested.

[8] = tested on: Corn plants containing control nucleotide sequence (S9 and S10); experiment: Herbicide-resistance effect test of corn plants with control sequence (spray, prop root development); format: in vivo; conditions: 8960 g ae/ha, 21 days after spraying
Description: as §5, §6

[9] = tested on: wild type corn plants (CK2); experiment: Herbicide-resistance effect test of wild type corn (spray, prop root development); format: in vivo; conditions: wild type corn strain CK2; 8960 g ae/ha; 21 days after spraying
Description: as §5, §6

[10] = curly rosette leaves 7 days after spraying
[11] = growth consistent with blank solvent 7 days after spraying
[12] = incapable of bolting 14 days after spraying
[13] = soybean strain S1 (24DT11), 2240 g ae/ha
[14] = soybean strain S2 (24DT11), 2240 g ae/ha
[15] = soybean strain S3 (24DT11), 2240 g ae/ha
[16] = soybean strain S4 (control sequence)
[17] = soybean strain S5 (control sequence)
[18] = corn strain S6 (24DT11), 8960 g ae/ha
[19] = corn strain S7 (24DT11), 8960 g ae/ha
[20] = corn strain S8 (24DT11), 8960 g ae/ha
[21] = corn strain S9 (control sequence)
[22] = corn strain S10 (control sequence)

Compound: CNC.O=C(O)COc1ccc(Cl)cc1Cl [2,4-D dimethyl ammonium salt]
- High resistant (number of plants) ([1]; 560 g ae/ha (1-fold field concentration), growth consistent with blank solvent 7 days after spraying): 26
- Moderate resistant (number of plants) ([1]; 560 g ae/ha, curly rosette leaves 7 days after spraying): 2
- Non-resistant (number of plants) ([1]; 560 g ae/ha, dead 14 days after spraying): 3
- Low resistant (number of plants) ([1]; 560 g ae/ha, incapable of bolting 14 days after spraying): 1
- Moderate resistant (number of plants) [2, 10]: 0
- Non-resistant (number of plants) ([2]; dead 14 days after spraying): 32
- High resistant (number of plants) [2, 11]: 0
- Low resistant (number of plants) [2, 12]: 0
- Moderate resistant (number of plants) [3, 10]: 0
- Non-resistant (number of plants) ([3]; dead 14 days after spraying): 32
- High resistant (number of plants) [3, 11]: 0
- Low resistant (number of plants) [3, 12]: 0
- Average damage % 6HAT ([4]; soybean strain S1 (24DT11), 2240 g ae/ha (4-fold field)): 7%
- Average damage % 2DAT [4, 13]: 4%
- Average damage % 7DAT [4, 13]: 0%
- Average damage % 14DAT [4, 13]: 0%
- Average damage % 6HAT [4, 14]: 5%
- Average damage % 2DAT [4, 14]: 2%
- Average damage % 7DAT [4, 14]: 0%
- Average damage % 14DAT [4, 14]: 0%
- Average damage % 6HAT [4, 15]: 13%
- Average damage % 2DAT [4, 15]: 6%
- Average damage % 7DAT [4, 15]: 2%
- Average damage % 14DAT [4, 15]: 0%
- Average damage % 6HAT [5, 16]: 46%
- Average damage % 2DAT [5, 16]: 76%
- Average damage % 7DAT [5, 16]: 96%
- Average damage % 14DAT [5, 16]: 100%
- Average damage % 6HAT [5, 17]: 53%
- Average damage % 2DAT [5, 17]: 77%
- Average damage % 7DAT [5, 17]: 91%
- Average damage % 14DAT [5, 17]: 100%
- Average damage % 6HAT ([6]; 6 hours after spraying): 48%
- Average damage % 2DAT ([6]; 2 days after spraying): 72%
- Average damage % 7DAT ([6]; 7 days after spraying): 94%
- Average damage % 14DAT ([6]; 14 days after spraying): 100%
- Normal development of brace roots (number of plants) ([7]; corn strain S6 (24DT11), 8960 g ae/ha (16-fold field)): 15
- Abnormal development of brace roots (number of plants) [7, 18]: 0
- Proportion of normal development of brace roots [7, 18]: 100.00%
- Abnormal development of brace roots (number of plants) [7, 19]: 0
- Normal development of brace roots (number of plants) [7, 19]: 13
- Proportion of normal development of brace roots [7, 19]: 100.00%
- Abnormal development of brace roots (number of plants) [7, 20]: 0
- Normal development of brace roots (number of plants) [7, 20]: 12
- Proportion of normal development of brace roots [7, 20]: 100.00%
- Abnormal development of brace roots (number of plants) [8, 21]: 13
- Normal development of brace roots (number of plants) [8, 21]: 0
- Proportion of normal development of brace roots [8, 21]: 0%
- Abnormal development of brace roots (number of plants) [8, 22]: 12
- Normal development of brace roots (number of plants) [8, 22]: 0
- Proportion of normal development of brace roots [8, 22]: 0%
- Abnormal development of brace roots (number of plants) [9]: 14
- Normal development of brace roots (number of plants) [9]: 0
- Proportion of normal development of brace roots [9]: 0%
